# Assay results: patent US20250057930A1, “ANAPLASTIC LYMPHOMA KINASE (ALK) CANCER VACCINES AND METHODS OF USE THEREOF” (The Children's Medical Center Corporation, priority 2022, published 2025)
# Key:
# [1] = system: splenocytes isolated from mice vaccinated with ALK-DNA vaccine; experiment: IFN-γ ELISPOT screening of synthetic long peptides on splenocytes of ALK-DNA vaccinated mice; assay type: cell-based, mouse; settings: ALK-DNA vaccine group, average ±SEM
# Method: Despite the known immunogenicity of the ALK protein, the data imply that ALK^+ mouse lung tumors induce an immune response insufficient to be activated by immune checkpoint inhibitor (ICI) treatment. Therefore, it was decided to directly investigate anti-ALK immune responses during ICI treatment by identifying the specific ALK peptides that induce T-cell mediated immune responses in mouse models. To identify the ALK-specific T-cell epitopes, an in vitro peptide screening was performed. A set of 21 overlapping synthetic long peptides (SLP), that encompassed the ALK cytoplasmic domain (FIG. 9A; Table 1), was incubated with splenocytes isolated from mice vaccinated with a vector encoding most of the ALK cytoplasmic domain (ALK-DNA vaccine) as previously described in Chiarle R, Martinengo C, Mastini C, Ambrogio C, D'Escamard V, Fori G, et al. The anaplastic lymphoma kinase is an effective oncoantigen for lymphoma vaccination.
# The interferon-γ release enzyme-linked immune absorbent spot (ELISPOT) assay was performed using a commercial kit (Mouse IFN-γ ELISPOT, Mabtech, Stockholm, Sweden) according to the manufacturer's instructions. Briefly, the ELISPOT plate was prepared in sterile conditions and washed with sterile PBS (200 μL/well) for 5 times. […] All plates were evaluated by a computer assisted ELISPOT reader (CTL Immunospot analyzer, OH, USA).
# [2] = system: CD8^+ T cells from NSCLC patients; experiment: IFN-γ ELISPOT of patient CD8^+ T cells expanded with ALK peptides; assay type: cell-based, human
# Method: Non-small cell lung cancer (NSCLC) patients, at the Dana-Farber Cancer Institute, consented to an institutional review board (IRB)-approved correlative research protocol that allowed for review of medical records and sample collection. Lung cancer mutation status was determined using standard CLIA-certified clinical assays in the Center for Advanced Molecular Diagnostics at Brigham and Women's Hospital. For each patient, 10 mL of whole blood was collected into K3-EDTA tubes, and peripheral blood mononuclear cells (PBMCs) (peripheral blood mononuclear cells) were isolated with Ficoll-Paque Plus density separation (GE Healthcare), and consequently frozen until use.
# Frozen PBMCs from patients with NSCLC were thawed, resuspended in cold RPMI containing 3% of human AB heat-inactivated serum (Sigma Aldrich), and cultured in a T-175 culture flask for 50 min. at 37° C. in 5% C02 to induce the attachment of CD14^+ monocytes to the plastic. The remaining floating PBMCs were removed with gentle washes of PBS and warm media. Monocytes were then cultured in RPMI containing 3% of human AB heat-inactivated serum, 2% Penicillin/Streptomycin, 1% Glutamine, and 25 nM HEPES with GM-CSF (120 ng/mL, Preprotech) and IL-4 (70 ng/mL, Preprotech). Fresh GM_CSF and IL-4 were added on days 3 and 5. On day 6, Poly I:C (30 μg/mL, Sigma Aldrich) was added for 24 hours to induce DCs maturation.
# B cells were expanded using the CD40 system (68,69). Briefly, NIH-3T3-CD40L cells were irradiated (9600 rads) and plated in a 6 well plate (400.000 cells/well) without Gentamycin. The following day, 8×10^6 PBMCs were resuspended in 4 mL of IMDM (Glutamine, Hepes, Gibco) containing 10% human AB serum heat-inactivated (Sigma Aldrich), Transferrin (50 μg/ml, Lonza), Insulin (5 μg/ml, BioXtra), Cyclosporine A (5.5×10^−7M, Sigma Aldrich), IL-4 (2 ng/ml, Preprotech) and Gentamycin (15 μg/ml, Gibco), and co-cultured with the irradiated NIH-3T3-CD40L for 5 days. PBMCs were then counted and cultured at the same concentration together with newly irradiated NIH-3T3-CD40L for 3 more days. After 12 days 95% of the cells were CD19^+ and could be expanded similarly every 3-4 days at a concentration of 10^6/mL. B cells were always used after 15 days of culture.
# CD8^+ T cells were purified using magnetic beads (CD8^+ T cell isolation Kit, Miltenyi) and co-cultured with DCs (20:1; around 10^6 CD8^+ T cells:50.000 DCs) in AIM V media (Gibco) with 5% human AB heat-inactivated serum (Sigma Aldrich), 20 units/mL IL-2 (Preprotech) and 10 ng/mL IL-7 (Preprotech). Before co-culture, DCs were pulsed with the 10 μg/mL of the desired peptide in AIM V media without serum at 37° C. in 5% CO2. Fresh IL-2 and IL-7 were added every 3-4 days. After 7 days, 3-4 million PBMCs CD8^+ T cells were co-cultured with peptide-pulsed DCs and cytokines (20-40:1 ratio). 3rd and 4th stimulation stimulations were done using 4-5 million CD8^+ T cells and peptide-pulsed irradiated B cells (ratio 4:1, 3000 rads) and fresh IL2 and IL7 (days 14 and 21). CD8^+ T-cell responses were then evaluated in an IFN-γ-ELISPOT assay (Mabtech) using peptide-pulsed B cells (1:1 ratio) as target cells. CD8^+ T cells were purified the day before the ELISPOT assay and rested overnight in media without cytokines. The ELISPOT was performed with FBS heat inactivated as recommended by the manufacturer. When the human material was limited, PBMCs or B0 cells were used in the first round of stimulation.
# [3] = system: ALK-specific CD8+ T cells; experiment: Vaccination of HLA B*07:02 transgenic mice, IFN-γ ELISPOT of splenocytes; assay type: in vivo, mouse; settings: short and long peptide groups pooled, of 12 mice
# From the text: Transgenic mice expressing the human HLA B*07:02 were vaccinated with different peptides containing the core epitopes […] (SEQ ID NO: 4) or […] (SEQ ID NO: 3): […] (SEQ ID NO: 4) (IVRshort), […] (SEQ ID NO: 1) (IVRlong), […] (SEQ ID NO: 3) (RPRshort), […] (SEQ ID NO: 2) (RPRlong). ALK-specific CD8+ T cells responses were detected in 12/12 (100%) mice vaccinated with either the IVRshort peptide or the IVRlong peptide and in 6/12 (50%) of mice vaccinated with either the PRPshort peptide or the RPRlong (FIG. 7D). Finally, ALK-specific CD8+ T cells responses were also detected in peripheral blood mononuclear cells (PBMCs) from 3/6 (50%) ALK+ NSCLC patients when stimulated with the […] (SEQ ID NO: 4) peptide but not with the […] (SEQ ID NO: 3) peptide (FIGS. 7E and 16B; Tables 6-7). Overall, four immunogenic ALK peptides in the context of the HLA A*02:01 and B*07:02 alleles were identified by mass spectrometry that can pave the way toward the design of a human ALK vaccine.
# The interferon-γ release enzyme-linked immune absorbent spot (ELISPOT) assay was performed using a commercial kit (Mouse IFN-γ ELISPOT, Mabtech, Stockholm, Sweden) according to the manufacturer's instructions. Briefly, the ELISPOT plate was prepared in sterile conditions and washed with sterile PBS (200 μL/well) for 5 times. Consecutively, the plate was conditioned with fresh DMEM medium (200 μL/well) contained 10% of the same fetal bovine serum used for the splenocytes suspension and incubated for 30 minutes at room temperature. After incubation, the medium was discarded and 2.5×10^5 splenocytes were plated in each well together with the appropriate stimuli. The plate was incubated over/night at 37° C. in humidified conditions with 5% C02. The day after, cells were discarded, and the plate was washed 5 times with PBS. Biotinylated detection anti-IFN-γ mAb (1 μg/mL) was added into the wells, followed by 2 hours of incubation at room temperature. […] All plates were evaluated by a computer assisted ELISPOT reader (CTL Immunospot analyzer, OH, USA).
# [4] = system: Ad-EA mice (mEml4-Alk rearranged lung tumor); experiment: Lung tumor volume by MRI and survival in Ad-EA mice; assay type: in vivo, mouse
# From the text: (§2) EML4-ALK transgenic (Tg) mice, which express the human EML4-ALK (E13;A20, human variant 1) driven by the SP-C promoter (henceforth referred as hEML4-ALK Tg mice), and BALB/c mice infected intratracheally with adenovirus carrying the CRISPR/Cas9 system to induce in vivo the Eml4-Alk rearrangement (E14;A20, mouse variant 1) (henceforth referred as Ad-EA mice). […] In these models, magnetic resonance imaging (MRI) (FIG. 1B) allowed precise cohort stratification and tumor follow-up.
# Anatomical T2-weighted coronal images were acquired with a respiratory-triggered multislice fast spin echo RARE sequence (TR=4 s, TE=4.5 ms, Rare Factor (RF)=16, FOV=30 mm^2, Matrix=256×256, slices=16-20, slice thickness=1 mm, 2 averages, providing an in-plane spatial resolution of 117 μm) with a 7T MRI (Bruker Advance III, Ettlingen, Germany) scanner equipped with a quadrature 1H coil. Animals were anesthetized by intraperitoneal injection of a combination of ROMPUN® (Bayer, 5 mg/kg) and ZOLETIL 100® (Laboratoires Virbac, 20 mg/kg); breathing was monitored during acquisition of the MR images with a respiratory sensor (SA Instruments, Inc.). Tumor volumes and numbers of masses calculations were performed by manual segmentation (slice by slice contouring) with ITK-SNAP software (www.itksnap.org).
# Syngeneic mice models transplanted with tumor cells were treated intraperitoneally with 200 μg of anti-PD-1 and/or anti-CTLA-4 (clone 9D9, Bioxcell), on days 3, 6, and 9 post-tumor transplantation (3 injections/per mouse).
# [5] = system: mEml4-Alk cell line tumors; experiment: mEml4-Alk syngeneic tumors in BALB/c mice; assay type: in vivo; settings: mEml4-Alk cell lines in syngeneic BALB/c mice
# Method: (§1) “[…]” is disclosed as SEQ ID NO: 22. […] “[…]” is disclosed as SEQ ID NO: 22.
# To determine whether these differences in anaplastic lymphoma kinase (ALK)-specific CD8^+ T-cell responses translated into a different anti-tumor activity, mice were treated with either flank or lung tumors with immune checkpoint inhibitors (ICIs). […] Tumor-free mice were then rechallenged to assess ALK-specific CD8^+ T-cell memory response. […] In contrast to flank tumors, ICI was ineffective against Eml4-Alk^[…]-1 (“[…]” disclosed as SEQ ID NO: 22) lung tumors as measured by overall survival (FIG. 3I), and lung tumor histology (FIG. 3J). Systemic ALK-specific CD8^+ T-cell response was analyzed in mice bearing flank or lung tumors. […] It was concluded that the robustness of the spontaneous ALK-specific CD8^+ T-cell response depended on tumor localization and determined the response to immune checkpoint inhibitors (ICIs).
# For syngeneic subcutaneous tumor transplantation, a total of 1×10^6 immortalized mouse cells were subcutaneously inoculated into the right dorsal flanks of 8-12 week-old BALB/c mice in 100 μL of phosphate-buffered saline (PBS). […] Tumor volume was measured by caliper measurements every 3 days in a blinded fashion and calculated according to the following equation: H. W^2/2. […]
# [6] = system: ALK-rearranged (ALK^+) NSCLC; settings: cited from earlier work
# mEml4-Alk cell lines = experiment: Cell viability assay (CellTiter-Glo) in mEml4-Alk cell lines; assay type: cell-based; settings: Mus musculus, mEml4-Alk^1, 72 h
# Method: as §1
# Cell viability assay was performed in all immortalized mouse cell lines by using CellTiter-Glo (Promega, USA) according to the manufacturer's instructions. […] After 72 h, CellTiter-Glo reagent was added to each well and luminescence output data were taken by GloMax-Multi Detection System (Promega, USA). The correspondent IC50 value for each ALK inhibitor was calculated with GraphPad Prism 9 software (GraphPad, USA).
# [7] = system: hEML4-ALK Tg mice (ALK^+ lung tumors); experiment: Lung tumor volume by MRI and survival in hEML4-ALK Tg mice; settings: crizotinib 40 mg/kg or lorlatinib 2 mg/kg, MRI
# From the text: as §2
# Anatomical T2-weighted coronal images were acquired with a respiratory-triggered multislice fast spin echo RARE sequence (TR=4 s, TE=4.5 ms, Rare Factor (RF)=16, FOV=30 mm^2, Matrix=256×256, slices=16-20, slice thickness=1 mm, 2 averages, providing an in-plane spatial resolution of 117 μm) with a 7T MRI (Bruker Advance III, Ettlingen, Germany) scanner equipped with a quadrature 1H coil. Animals were anesthetized by intraperitoneal injection of a combination of ROMPUN® (Bayer, 5 mg/kg) and ZOLETIL 100® (Laboratoires Virbac, 20 mg/kg); breathing was monitored during acquisition of the MR images with a respiratory sensor (SA Instruments, Inc.). Tumor volumes and numbers of masses calculations were performed by manual segmentation (slice by slice contouring) with ITK-SNAP software (www.itksnap.org). […]
compound,measurement,setting,value
LTANMKEVPLFRLRHFPCGNVNYGYQQQGLPLEAAT [SLP20],number of IFN-γ-spots,[1],Weaker responses
RPRPSQPSSL,Average Spots Forming Units (2 wells)/20 000 CD8^+ T cells,"[2]; Patient 1 (ALK), IVRCIGVSL expanded",5.5 Spots Forming Units/20 000 CD8
same,Average Spots Forming Units (2 wells)/20 000 CD8^+ T cells,"[2]; Patient 1 (ALK), RPRPSQPSSL expanded",4.5 Spots Forming Units/20 000 CD8
same,Average Spots Forming Units (2 wells)/20 000 CD8^+ T cells,"[2]; Patient 2 (ALK), IVRCIGVSL expanded",27.5 Spots Forming Units/20 000 CD8
same,Average Spots Forming Units (2 wells)/20 000 CD8^+ T cells,"[2]; Patient 2 (ALK), RPRPSQPSSL expanded",0 Spots Forming Units/20 000 CD8
same,Average Spots Forming Units (2 wells)/20 000 CD8^+ T cells,"[2]; Patient 3 (ALK), IVRCIGVSL expanded",6.5 Spots Forming Units/20 000 CD8
same,Average Spots Forming Units (2 wells)/20 000 CD8^+ T cells,"[2]; Patient 3 (ALK), RPRPSQPSSL expanded",3 Spots Forming Units/20 000 CD8
same,Average Spots Forming Units (2 wells)/20 000 CD8^+ T cells,"[2]; Patient 4 (ALK), RPRPSQPSSL expanded",2 Spots Forming Units/20 000 CD8
same,Average Spots Forming Units (2 wells)/20 000 CD8^+ T cells,"[2]; Patient 5 (KRASG12V), RPRPSQPSSL expanded",1 Spots Forming Units/20 000 CD8
same,Average Spots Forming Units (2 wells)/20 000 CD8^+ T cells,"[2]; Patient 6 (EGFR del exon19), IVRCIGVSL expanded",1.5 Spots Forming Units/20 000 CD8
same,Average Spots Forming Units (2 wells)/20 000 CD8^+ T cells,"[2]; Patient 6 (EGFR del exon19), RPRPSQPSSL expanded",10 Spots Forming Units/20 000 CD8
same,Average Spots Forming Units (2 wells)/20 000 CD8^+ T cells,"[2]; Patient 7 (KRASG12D), IVRCIGVSL expanded",1 Spots Forming Units/20 000 CD8
same,Average Spots Forming Units (2 wells)/20 000 CD8^+ T cells,"[2]; Patient 7 (KRASG12D), RPRPSQPSSL expanded",3 Spots Forming Units/20 000 CD8
same,Average Spots Forming Units (2 wells)/20 000 CD8^+ T cells,"[2]; Patient 8 (EGFR del exon19), IVRCIGVSL expanded",2 Spots Forming Units/20 000 CD8
same,Average Spots Forming Units (2 wells)/20 000 CD8^+ T cells,"[2]; Patient 8 (EGFR del exon19), RPRPSQPSSL expanded",10 Spots Forming Units/20 000 CD8
same,mice with ALK-specific CD8+ T cells responses detected,[3],50%
C[C@H]1Oc2cc(cnc2N)-c2c(nn(C)c2C#N)CN(C)C(=O)c2ccc(F)cc21 [lorlatinib],tumor response at the end of treatment,"[4]; crizotinib 40 mg/kg or lorlatinib 2 mg/kg, MRI",almost complete regression of tumors
same,"tumor response by MRI, prolonged treatment","[4]; lorlatinib up to 8 weeks, tumors relapsed upon suspension",complete remission by MRI
same,tumor sensitivity in vivo,[5],marked sensitivity
same,average disease control,[6]; patients with resistance to earlier ALK TKIs,7 months
same,IC50,mEml4-Alk cell lines,1.17 nM
same,tumor response at the end of treatment,[7],almost complete regression of tumors
GYQQQGLPLEAATAPGAGHYEDTILKSKNSMNQPGP [SLP21],number of IFN-γ-spots,[1],Weaker responses
COc1cc(N2CCC(N3CCN(C)CC3)CC2)ccc1Nc1ncc(Cl)c(Nc2ccccc2P(C)(C)=O)n1 [brigatinib],time to disease progression in most patients,[6]; first-line treatment,three
